The data set relates to anaesthesized rats. Put plainly: wheal test, intradermal injection. The class given is in vivo, rat. More on the design: Wheal (wheal response): unit not given here. The method in brief: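 Anaesthetized rats given intradermal injection of 10 ug peptide in 100 ul saline; area of the wheal calculated from its diameter.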

Starred links: 1 amine or outer side, 2 acyl side, 3 side chain; linkers in the order of their positions; H or OH if unused. Non-standard residues stand in square brackets, D forms with d. Residues, ends and D or L forms follow the SMILES beside them. *: point of attachment. dAla(cis-4-NHCOPyz-cHex) = N[C@H](C[C@H]1CC[C@@H](NC(=O)c2cnccn2)CC1)C(=O)O; X4 = O=C(N[C@H]1CC[C@@H](C[C@@H](N[*:1])C(=O)[*:2])CC1)c1cccnc1; dPhe(3,4-Cl2) = N[C@H](Cc1ccc(Cl)c(Cl)c1)C(=O)O; dPhe(4-Cl) = N[C@H](Cc1ccc(Cl)cc1)C(=O)O; d2Nal = N[C@H](Cc1ccc2ccccc2c1)C(=O)O; Lys(iPr) = CC(C)NCCCC[C@H](N)C(=O)O; Orn(iPr) = CC(C)NCCC[C@H](N)C(=O)O; d3Pal = N[C@H](Cc1cccnc1)C(=O)O; Nicotinoyl = O=C(c1cccnc1)*; Picolinoyl = O=C(c1ccccn1)*; Abu = CC[C@H](N)C(=O)O

Regarding `CC[C@H](C)[C@H](NC(=O)[C@@H](CCCCNC(=O)c1ccccn1)NC(=O)[C@H](CCCCNC(=O)c1ccccn1)NC(=O)[C@H](CO)NC(=O)[C@@H](Cc1cccnc1)NC(=O)[C@@H](Cc1ccc(Cl)cc1)NC(=O)[C@@H](Cc1ccc2ccccc2c1)NC(C)=O)C(=O)N[C@@H](CCCCNC(C)C)C(=O)N1CCC[C@H]1C(=O)N[C@H](C)C(N)=O` [compound 26020] (Ac-[d2Nal][dPhe(4-Cl)][d3Pal]SK(Picolinoyl)[dK](Picolinoyl)I[Lys(iPr)]P[dA]-NH2), the “Wheal Area” value (10 ug peptide intradermally) is given as 110.7 ± 2.3 mm^2 /10 μg. On the same count and under the same terms, as for `CC(=O)N[C@H](Cc1ccc(Cl)c(Cl)c1)C(=O)N[C@H](Cc1ccc(Cl)cc1)C(=O)N[C@H](Cc1cccnc1)C(=O)N[C@@H](CO)C(=O)N[C@@H](CCCCNC(=O)c1ccccn1)C(=O)N[C@H](CCCCNC(=O)c1ccccn1)C(=O)N[C@@H](CC(C)C)C(=O)N[C@@H](CCCCNC(C)C)C(=O)N1CCC[C@H]1C(=O)N[C@H](C)C(N)=O` [compound 26100] (Ac-[dPhe(3,4-Cl2)][dPhe(4-Cl)][d3Pal]SK(Picolinoyl)[dK](Picolinoyl)L[Lys(iPr)]P[dA]-NH2), the figure is 116.2 ± 3.7 mm^2 /10 μg. As to `CC(=O)N[C@H](Cc1ccc2ccccc2c1)C(=O)N[C@H](Cc1ccc(Cl)cc1)C(=O)N[C@H](Cc1cccnc1)C(=O)N[C@@H](CO)C(=O)N[C@@H](CCCCNC(=O)c1cccnc1)C(=O)N[C@H](C[C@H]1CC[C@@H](NC(=O)c2cccnc2)CC1)C(=O)N[C@@H](CC(C)C)C(=O)N[C@@H](CCCCNC(C)C)C(=O)N1CCC[C@H]1C(=O)N[C@H](C)C(N)=O` [IBR 25648] (Ac-[d2Nal][dPhe(4-Cl)][d3Pal]SK(Nicotinoyl)[X4]L[Lys(iPr)]P[dA]-NH2), under “10 ug peptide intradermally”, the “Wheal Area” value is recorded as 101.8 ± 4.3 mm^2 /10 μg. Turning to `CC(=O)N[C@H](Cc1ccc2ccccc2c1)C(=O)N[C@H](Cc1ccc(Cl)cc1)C(=O)N[C@H](Cc1cccnc1)C(=O)N[C@@H](CO)C(=O)N[C@@H](CCCCNC(=O)c1ccccn1)C(=O)N[C@H](CCCCNC(=O)c1ccccn1)C(=O)N[C@H](C(=O)N[C@@H](CCCNC(C)C)C(=O)N1CCC[C@H]1C(=O)N[C@H](C)C(N)=O)C(C)C` [compound 26118] (Ac-[d2Nal][dPhe(4-Cl)][d3Pal]SK(Picolinoyl)[dK](Picolinoyl)V[Orn(iPr)]P[dA]-NH2), the “Wheal Area” value (10 ug peptide intradermally) is 119.6 ± 6.6 mm^2 /10 μg. In turn, `CC(=O)N[C@H](Cc1ccc2ccccc2c1)C(=O)N[C@H](Cc1ccc(Cl)cc1)C(=O)N[C@H](Cc1cccnc1)C(=O)N[C@@H](CO)C(=O)N[C@@H](CCCCNC(=O)c1cccnc1)C(=O)N[C@H](C[C@H]1CC[C@@H](NC(=O)c2cccnc2)CC1)C(=O)N[C@@H](CC(C)C)C(=O)N[C@@H](CCCCNC(C)C)C(=O)N1CCC[C@H]1C(=O)N[C@H](C)C(N)=O` [compound 25648] (Ac-[d2Nal][dPhe(4-Cl)][d3Pal]SK(Nicotinoyl)[X4]L[Lys(iPr)]P[dA]-NH2) gave a Wheal (Table I, 10 ug peptide intradermally) of 113.6 mm^2 /10.

For `CC(=O)N[C@H](Cc1ccc2ccccc2c1)C(=O)N[C@H](Cc1ccc(Cl)cc1)C(=O)N[C@H](Cc1cccnc1)C(=O)N[C@@H](CO)C(=O)N[C@@H](CCCCNC(=O)c1ccccn1)C(=O)N[C@H](C[C@H]1CC[C@@H](NC(=O)c2cnccn2)CC1)C(=O)N[C@H](C(=O)N[C@@H](CCCCNC(C)C)C(=O)N1CCC[C@H]1C(=O)N[C@H](C)C(N)=O)C(C)C` [compound 26325] (Ac-[d2Nal][dPhe(4-Cl)][d3Pal]SK(Picolinoyl)[dAla(cis-4-NHCOPyz-cHex)]V[Lys(iPr)]P[dA]-NH2), the “Wheal Area” value (10 ug peptide intradermally) is 127.8 ± 4.9 mm^2 /10 μg. Where the note is “Table XIV and text, unit not given”, the “Wheal (wheal response)” value amounted to 127.8 ± 4.9. For the compound `CC[C@H](NC(=O)[C@@H](CCCCNC(=O)c1ccccn1)NC(=O)[C@H](CCCCNC(=O)c1ccccn1)NC(=O)[C@H](CO)NC(=O)[C@@H](Cc1cccnc1)NC(=O)[C@@H](Cc1ccc(Cl)cc1)NC(=O)[C@@H](Cc1ccc2ccccc2c1)NC(C)=O)C(=O)N[C@@H](CCCNC(C)C)C(=O)N1CCC[C@H]1C(=O)N[C@H](C)C(N)=O` [compound 26179] (Ac-[d2Nal][dPhe(4-Cl)][d3Pal]SK(Picolinoyl)[dK](Picolinoyl)[Abu][Orn(iPr)]P[dA]-NH2), where the note is “10 ug peptide intradermally”, the “Wheal Area” value came out at 101.5 ± 9.3 mm^2 /10 μg.
